The results in this text go back to patent publication US5254584A, “N-acetonylbenzamides and their use as fungicides” (Rohm and Haas Company, priority 1992, dated 1993).

The MIC is the lowest concentration that inhibits growth of the organism.

Values after ≈ are worked out from the molar mass of the structure shown.

One data set has as its system Pythium ultimum. Put plainly: Fungitoxicity assay against Pythium ultimum (in vitro, mycelial dry weight). It is filed as cell-based. As to conditions: Globisporangium ultimum, 48 hours at 25° C., read-out: Pythium EC50. Here is the method: The compounds of Examples 1-20 were tested in vitro for fungicidal activity and phytotoxicity. A. The compounds were tested in vitro for fungicidal activity against Pythium ultimum, Botrytis cinerea and Venturia inaequalis. Fungitoxicity assay against Pythium ultimum: A dilution series of test compound was prepared in dimethylsulfoxide, and 0.1 milliliter (ml) of each dilution was added to 19.9 ml of a liquid asparagine-sucrose broth ([…]. and Katznelson, K., 1971, Can. J. […] Each plate was inoculated with a mycelial plug, 7 millimeters (mm) in diameter, taken from the growing edge of a culture of Pythium ultimum grown on potato dextrose agar. Two replicate plates were used for each treatment. The increase in mycelial dry weight was determined after growth for 48 hours at 25° C. with shaking on a gyrotary shaker at 60 revolutions per minute (rpm). EC50 values were calculated from dose response curves. As used herein, the terminology "EC50" means the concentration of test compound required to inhibit growth by 50% as compared to a control lacking the test compound. Results of the testing for fungicidal activity against the above named fungi are set forth below in Table 3 as Pythium EC50 (ppm), Botrytis EC50 (ppm) and Venturia MIC (ppm), respectively.

Data set [1] is described as follows: Tobacco root assay for phytotoxicity (in vitro root elongation). To be noted: 7 days, 27° C., read-out: Tob. EC50. The method, then: The compounds of Examples 1-20 were tested in vitro for fungicidal activity and phytotoxicity.
B. The compounds were tested in vitro for phytotoxicity in a tobacco root elongation assay.
Tobacco root assay for Phytotoxicity:
A dilution series of test compound was prepared in dimethylsulfoxide and 20 ul of each dilution was added to 20 ml of molten nutrient medium, consisting of Murashige and Skoog salt base, 2% sucrose and 1% agar, to give the desired concentrations of test compound. The mixtures were poured immediately into 9 cm diameter petri dishes. Surface-sterilized tobacco seeds were placed on each plate (20 seeds per plate) and the plates incubated in a vertical position in a 27° C. incubator with a 16 hour photoperiod. After 7 days the mean root lengths were calculated, and EC50 values determined from dose response curves.
Results of the tobacco root assay are set forth below in Table 3 as Tob. EC50 (ppm).

Another data set deals with Botrytis cinerea. Briefly: Fungitoxicity assay against Botrytis cinerea (in vitro, colony diameter). Format: cell-based. As to conditions: 48 hours at 25° C., read-out: Botrytis EC50. Here is the method:
The compounds of Examples 1-20 were tested in vitro for fungicidal activity and phytotoxicity. A. The compounds were tested in vitro for fungicidal activity against Pythium ultimum, Botrytis cinerea and Venturia inaequalis. Fungitoxicity assay against Botrytis cinerea: […] The mixtures were poured immediately into 9 centimeter (cm) diameter petri dishes. Two replicate plates were used for each treatment. Each plate was inoculated with a 7 mm diameter plug taken from the growing edge of a 5 day old culture of B. cinerea on potato dextrose agar. […] Results of the testing for fungicidal activity against the above named fungi are set forth below in Table 3 as Pythium EC50 (ppm), Botrytis EC50 (ppm) and Venturia MIC (ppm), respectively.

Another data set concerns Venturia inaequalis. Put plainly: Fungitoxicity assay against Venturia inaequalis (in vitro, microtiter MIC). It is filed as cell-based. To be noted: 168 h, minimum inhibitory concentration, 7 days at 25° C. The method, then: The compounds of Examples 1-20 were tested in vitro for fungicidal activity and phytotoxicity. A. The compounds were tested in vitro for fungicidal activity against Pythium ultimum, Botrytis cinerea and Venturia inaequalis. Fungitoxicity assay against Venturia inaequalis: Test compounds were dissolved in dimethylsulfoxide at 1 milligram per milliliter (mg/ml), and 50 ul added to 950 ul of yeast extract-dextrose medium (YED, 0.4% yeast extract, 2% dextrose) to give 50 part per million (ppm) solutions. Minimum inhibitory concentration (MIC) values were determined using a microtiter assay with twofold serial dilutions of the prepared 50 ppm solutions (100 ul) in YED medium. Inoculum consisted of a spore suspension of V. inaequalis in YED medium at 2.5×10^5 spores per ml. […] Results of the testing for fungicidal activity against the above named fungi are set forth below in Table 3 as Pythium EC50 (ppm), Botrytis EC50 (ppm) and Venturia MIC (ppm), respectively.

Another data set deals with cucumber plants. Briefly: In vivo phytotoxic activity, foliar spray, cucumber. The arrangement: key: +: indicating presence of a plant growth regulatory effect as compared to a control to which a solvent mixture (acetone/water/methanol) lacking the test compound was applied; 0: A zero indicates no apparent effect. As to conditions: foliar spray 2200 g/Ha, seven days after application. The method, then:
(§1) The compounds of Examples 1 and 12 were tested in vivo for phytotoxic activity by applying the compounds to the foliage of cucumber, tomato, bean, lettuce and strawberry plants as a spray at a rate of 2200 g/Ha. The plants were evaluated seven days after spray application of the compounds.
(§2) Phototoxicity scores are set forth below in Table 6. The phytotoxicity scores use a symbol, "+", indicating presence of a plant growth regulatory effect as compared to a control to which a solvent mixture (acetone/water/methanol) lacking the test compound was applied. A zero indicates no apparent effect. Each score is a composite representing the mode value for three replicate plants.

For another data set, the system named is tomato plants. Put plainly: In vivo phytotoxic activity, foliar spray, tomato. Also noted: key: +: indicating presence of a plant growth regulatory effect as compared to a control to which a solvent mixture (acetone/water/methanol) lacking the test compound was applied; 0: A zero indicates no apparent effect. To be noted: foliar spray 2200 g/Ha, seven days after application. Here is the method: as §1, §2

In another data set the test system is bean plants. Put plainly: In vivo phytotoxic activity, foliar spray, bean. Also noted: key: +: indicating presence of a plant growth regulatory effect as compared to a control to which a solvent mixture (acetone/water/methanol) lacking the test compound was applied; 0: A zero indicates no apparent effect. To be noted: foliar spray 2200 g/Ha, seven days after application. The method, then: as §1, §2

The subject of another data set is lettuce plants. Briefly: In vivo phytotoxic activity, foliar spray, lettuce. To be noted: foliar spray 2200 g/Ha, seven days after application. Also noted: key: +: indicating presence of a plant growth regulatory effect as compared to a control to which a solvent mixture (acetone/water/methanol) lacking the test compound was applied; 0: A zero indicates no apparent effect. Here is the method: as §1, §2

The subject of a further data set is strawberry plants. Briefly: In vivo phytotoxic activity, foliar spray, strawberry. Also noted: key: +: indicating presence of a plant growth regulatory effect as compared to a control to which a solvent mixture (acetone/water/methanol) lacking the test compound was applied; 0: A zero indicates no apparent effect. To be noted: foliar spray 2200 g/Ha, seven days after application. Here is the method:
as §1, §2

`CCC(C)(NC(=O)c1cccc(C=NOC)c1)C(=O)CCl` (stereo not drawn) [Example 1, 3-(3'-Methoxyiminomethylbenzamido)-1-chloro-3-methylpentan-2-one]: the IC50 was found to be 0.31 µg/mL (≈ 0.997 µM) with Pythium ultimum and 9.5 µg/mL (≈ 30.6 µM) in the data set on Botrytis cinerea. In data set [1], the IC50 at 168 h came to 1.86 µg/mL (≈ 5.98 µM). The compound also showed an MIC in the data set on Venturia inaequalis of 1.56 µg/mL (≈ 5.02 µM). For the same compound, the “phytotoxicity score, Cucumber” value in the data set on cucumber plants amounted to 0. The “phytotoxicity score, Tomato” value in the data set on tomato plants was found to be 0. Also, in the data set with bean plants, the “phytotoxicity score, Bean” value is 0. The “phytotoxicity score, Lettuce” value in the data set with lettuce plants turned out to be 0. In addition, the “phytotoxicity score, Strawberry” value in the data set on strawberry plants is “+”.
